{
  "source": "paper PMC8632000",
  "about": "(Frontiers in Pharmacology, 2021)",
  "key": {"[1]": {"conditions": "cited from earlier work"}, "[2]": {"experiment": "Population pharmacokinetic model (NONMEM) of vancomycin plasma concentration-time data in surgical patients", "protocol": "Only patients who underwent a major surgical procedure and were above the age of 18 years were included in the study. […] The dose selection and duration of infusion were at the discretion of the attending medical practitioners. […] Patient demographics, including age, weight, sex, type of disease, and serum creatinine (SCR) were recorded from patient files, and creatinine clearance (CRCL) was calculated using the Cockcroft and Gault equation ([Cockcroft and Gault, 1976]).\nBriefly, separation was carried out using a C18 column (125 mm × 4.6 mm, 5 µm) with UV detection at 205 nm. The mobile phase was a combination of buffer (50 mM ammonium dihydrogen phosphate) at pH 2.2 and acetonitrile (88:12 v/v). The method was linear over the concentration range of 0.25–60 mg/l.\nThe population pharmacokinetic model was developed using nonlinear mixed effect modeling (NONMEM version 7.4.4) software provided by Icon Clinical Research LLC, New York, NY, USA, along with the Perl-speaks-NONMEM (PsN) toolkit ([Lindbom et al., 2005]). The execution and management of the model as well as report generation were performed with the aid of Pirana (Certara, Princeton, NJ, USA) ([Keizer et al., 2011]). The actual process of modeling began with the development of one-compartment and two-compartment base models using the first-order conditional estimation method with interaction (FOCE-I) to obtain pharmacokinetic parameter estimates without any covariates. […] The exponential random-effect model was used to describe the between-subject variability (BSV) on pharmacokinetic (PK) parameters, while additive, proportional, and combined residual error models were tested to describe the residual error between the observed and predicted concentrations of vancomycin.\nThe influence of different covariates (age, sex, WT, SeCR, and CRCL) on CL and Vd was determined by stepwise covariate modeling (SCM) in which the covariates were included in the model by forward inclusion and backward elimination processes. […]"}, "[3]": {"conditions": "median of 1,000 bootstrap estimates"}},
  "data": [
    {"smiles": "CN[C@H](CC(C)C)C(=O)N[C@H]1C(=O)N[C@@H](CC(N)=O)C(=O)N[C@H]2C(=O)N[C@H]3C(=O)N[C@H](C(=O)N[C@H](C(=O)O)c4cc(O)cc(O)c4-c4cc3ccc4O)[C@H](O)c3ccc(c(Cl)c3)Oc3cc2cc(c3O[C@@H]2O[C@H](CO)[C@@H](O)[C@H](O)[C@H]2O[C@H]2C[C@](C)(N)[C@H](O)[C@H](C)O2)Oc2ccc(cc2Cl)[C@H]1O", "note": "[Vancomycin]", "values": [
      {"measurement": "Vancomycin CL in obese patients", "setting": "[1]; obese patients, ref Blouin et al., 1982, Bauer et al., 1998, Adane et al., 2015", "value": "6.54 to 11.8", "unit": "L/h"},
      {"measurement": "Reported CL values in other studies", "setting": "[1]; ref Buelga et al., 2005, Llopis-Salvia and Jiménez-Torres, 2006, Staatz et al., Thomson et al., 2009, Tanaka et al., 2010, Udy et al., 2013, Escobar et al., 2014, Usman et al., 2018", "value": "1.08 to 2.99", "unit": "L/h"},
      {"measurement": "Vd, lower end of reported range", "setting": "[1]; ref Escobar et al., 2014", "value": 11.8, "unit": "L"},
      {"measurement": "Vd, upper end of reported range", "setting": "[1]; ref Lin et al., 2016", "value": 101, "unit": "L"},
      {"measurement": "Fraction of drug excreted via renal elimination", "setting": "[1]; ref Matzke et al., 1984, Rodvold et al., 1988, Ducharme et al., 1994", "value": "80%–90%"},
      {"measurement": "CL, bootstrap estimate", "setting": "[2]; [3]", "value": 2.46, "unit": "L/h"},
      {"measurement": "V, bootstrap estimate", "setting": "[2]; [3]", "value": 22.7, "unit": "L"},
      {"measurement": "V (volume of distribution), final estimate", "setting": "[2]; one-compartment final model, 58 patients", "value": 22.6, "unit": "L"}
    ]}
  ]
}
